In patent US5527832A, “Antiinflammatory and analgesic transdermal gel” (priority 1994, dated 1996):

Assays:
[1] = Gastric ulcer formation (Experiment 4); type: in vivo, male Sprague-Dawley rats; conditions: 10 mg/kg
Experimental: Male Sprague-Dawley rats weighing around 200 g were used as the test animals. […] As a reference, the rats of the control group were administrated ketoprofen orally as a suspension in physiological saline at the dose of 10 mg/kg. Six hours after the administration, the rats were sacrificed and ulcer formation in the stomach was scored as follows: 0; normal, 1; reddened mucosa, 2; one to four small ulcer (smaller than 2 mm in diameter). 3; more than four small ulcer or one large ulcer (larger than 2 mm in diameter), 4; more than one large ulcer. The score of two or higher was regarded as ulcer formation.

[2] = postdose, oral administration to rats; cited from earlier work

Compound	No. of rat ulcer is produced ([1]; oral, 6 h after administration)	Average ulcer score ([1]; oral, 6 h after administration, score 0-4)	Time of maximum concentration of ketoprofen [2] [h]	Average ulcer score ([1]; rat, in vivo, po)	No. of rat ulcer is produced ([1]; rat, in vivo, po)
CC(C(=O)O)c1cccc(C(=O)c2ccccc2)c1 (stereo not shown) [ketoprofen]	6/6	2.91	0.25 to 0.5	–	–
CC(C(=O)O)c1ccc(-c2ccccc2)c(F)c1 (stereo not shown) [flurbiprofen]	–	–	–	2.46	5/6
CC(C)Cc1ccc(C(C)C(=O)O)cc1 (stereo not shown) [ibuprofen]	–	–	–	2.53	6/6
